“Also recorded” adds a separate entry of the source.
Columns and labels:
E. coli MC4100ΔclpB = assay: Bacterial growth and viability, MC4100ΔclpB; assay type: cell-based, Escherichia coli; conditions: 37 °C
Method: E. coli MC4100, MC4100ΔclpB, dnaK103, and dnaK756 strains were used to determine an influence of DBeQ on bacterial growth and viability. Bacteria were maintained in the LB media, and in the case of the MC4100ΔclpB strain, LB was supplemented with 30 μg/ml kanamycin. All experiments were initiated by preparing overnight cultures inoculated from single colonies and grown at 37 °C. The dnaK103 and dnaK756 overnight cultures were grown at 30 °C. On the following day, the cultures were diluted 100-fold in 10 ml of LB without antibiotics and incubated at 37 °C. The culture optical density was monitored at 600 nm. When absorbance at 600 nm reached 0.4, the culture was divided into 1-ml aliquots and supplemented with 10 μl of DMSO or different concentrations of DBeQ in DMSO. The samples were immediately transferred into an incubator/shaker at temperature 37, 45, or 50 °C. Bacteria were cultured for up to 4 h with shaking (200 RPM). At specific time points, 100 μl of each culture was withdrawn and serially diluted in sterile 0.9% NaCl up to 10^6-fold dilution. To estimate the number of viable cells, 5 μl or 10 μl of the diluted cultures was spread on the LB-agar plate without an antibiotic. […] On the following day, the bacterial colonies were counted and the colony-forming units/ml were calculated.

[1] = test system: ClpB-YFP in dnaK103 E. coli; assay: Confocal microscopy of ClpB-YFP localization; assay type: cell-based, Escherichia coli; conditions: dnaK103, 100-μM DBeQ, 45 °C 30 min
Method: ClpB-YFP and Luciferase-YFP were expressed at low levels in E. coli strains ΔclpB, dnaK103, and dnaK756 as described before ([44]). The expression of ClpB-YFP and YFP-Luciferase was initiated by addition of 200-μM IPTG or 0.02% (w/v) arabinose, respectively. The bacterial cells were cultured at 30 °C with 100-μM DBeQ or DMSO only. Protein translation was stopped by addition of erythromycin (30 μg/ml), and each culture was divided into two samples. One sample remained at 30 °C (control), whereas the other sample was transferred to 45 °C for 30 min (heat-shock conditions).
A thin layer of 1% agarose (TopVision Low Melting Point Agarose, Thermo Scientific) was prepared on a clean microscope glass slide. A small drop of 1% agarose was placed near the frosted end of the glass slide while bringing a second glass slide at a 30 to 45° angle from above, allowing the agarose drop to spread along the contact edge. […] An E. coli culture sample (1 μl) was immediately placed on the agarose-covered glass slide, covered with a cover slip, and used for fluorescence imaging.
Fluorescence imaging was performed using a Carl Zeiss LSM 880 Airyscan confocal microscope equipped with a Plan-Apochromat 63x/1.40 Oil DIC M27 objective coupled with a YFP Filter (excitation at 514 nm, emission at 561 nm, laser strength 0.98%). […]

DnaK = molecular target: T1, DnaK (Escherichia coli, UniProt P0A6Y8); assay: DnaK binding to FITC-B2 peptide, fluorescence anisotropy; conditions: FITC-B2 20 nM, increasing DBeQ
T1 construct: full-length E. coli DnaK (residues 1–638); made in house; host or cells: E. coli BL21(DE3)
T1 sequence (P0A6Y8 whole entry, the tested form may be a part): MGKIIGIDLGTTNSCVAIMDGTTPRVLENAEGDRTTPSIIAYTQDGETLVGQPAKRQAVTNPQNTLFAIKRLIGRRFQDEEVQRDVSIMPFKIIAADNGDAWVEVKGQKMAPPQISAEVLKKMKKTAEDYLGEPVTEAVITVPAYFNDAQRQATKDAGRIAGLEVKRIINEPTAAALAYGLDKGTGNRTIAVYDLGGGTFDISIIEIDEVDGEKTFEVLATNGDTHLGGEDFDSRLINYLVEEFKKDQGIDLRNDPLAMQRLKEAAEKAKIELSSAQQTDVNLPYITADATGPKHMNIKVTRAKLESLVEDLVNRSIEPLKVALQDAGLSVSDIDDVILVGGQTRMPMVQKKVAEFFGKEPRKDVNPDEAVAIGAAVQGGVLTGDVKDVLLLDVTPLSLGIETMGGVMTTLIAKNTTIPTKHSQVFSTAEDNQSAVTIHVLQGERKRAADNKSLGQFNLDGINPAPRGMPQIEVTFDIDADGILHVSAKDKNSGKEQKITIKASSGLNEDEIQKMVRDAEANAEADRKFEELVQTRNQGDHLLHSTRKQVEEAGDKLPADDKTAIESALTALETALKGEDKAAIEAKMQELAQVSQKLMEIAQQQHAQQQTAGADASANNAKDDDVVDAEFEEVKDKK
Method: To monitor interactions between the peptide B2 and DnaK, the DnaK stock was diluted in buffer C (50-mM Tris-HCl, pH 7.4, 20-mM MgCl2, 1-mM EDTA, 0.5-mM TCEP) to a final concentration of 1 μM. DBeQ solutions in DMSO (20 μl) were mixed with 372 μl of 1-μM DnaK. After 10 min of incubation at room temperature, the samples were supplemented with 8 μl of 1-μM FITC-B2 in buffer C (FITC-Ahx-[…]-NH2) ([51]). The FITC-B2 sample without DnaK was used as a control. After a 30-min incubation at room temperature, fluorescence anisotropy of FITC-B2 was measured with a PerkinElmer LS55 (λexc = 485 nm (slit: 15 nm), λem = 521 (slit: 20 nm)).

DnaK NBD = molecular target: T2, DnaK NBD (Escherichia coli, UniProt P0A6Y8); assay: Surface plasmon resonance, immobilized DnaK NBD; assay type: binding
T2 construct: the NBD of E. coli DnaK (residues 1–388); His-tag (pET28a) (C); made in house; host or cells: E. coli BL21(DE3)
T2 sequence (P0A6Y8 1-388): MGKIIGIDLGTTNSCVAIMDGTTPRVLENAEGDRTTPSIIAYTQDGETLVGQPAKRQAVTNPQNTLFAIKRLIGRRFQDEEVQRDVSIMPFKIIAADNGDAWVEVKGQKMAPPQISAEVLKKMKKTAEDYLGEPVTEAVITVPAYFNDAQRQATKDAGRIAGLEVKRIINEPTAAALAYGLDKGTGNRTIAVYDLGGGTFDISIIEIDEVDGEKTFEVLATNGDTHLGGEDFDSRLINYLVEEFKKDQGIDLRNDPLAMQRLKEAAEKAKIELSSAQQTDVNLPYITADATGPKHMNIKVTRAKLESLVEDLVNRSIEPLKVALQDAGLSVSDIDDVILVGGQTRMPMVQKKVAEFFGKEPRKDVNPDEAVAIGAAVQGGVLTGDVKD
Method: ClpB, DnaK, and the NBD of DnaK were extensively dialyzed against the SPR buffer (20-mM Hepes, pH 7.4, 150-mM NaCl, 20-mM MgCl2, 1-mM EDTA, 1-mM DTT). After dialysis, the protein concentration was determined by the Bradford method. The DBeQ–protein interactions were studied using a Biacore T200 instrument (GE Healthcare) at 25 °C. The proteins were diluted to 300 μg/ml in 10-mM sodium acetate buffer (pH 5 for ClpB DnaK or pH 4 for NBD) and immobilized on HC1500M sensor chips (Xantec) by standard amine coupling chemistry as described previously ([70]). A reference flow cell was created by ethyl(dimethylaminopropyl) carbodiimide/N-hydroxysuccinimide activation followed by quenching with 1 M ethanolamine (pH 9.0). Solvent correction curves were obtained at the beginning and end and after every 50 injection cycles by injecting varying DMSO concentrations (4.0, 4.4, 4.6, 4.8, 5.0, 5.2, 5.4, and 5.9% [v/v]). […]
Binding isotherms were obtained with the ligand diluted to different concentrations in the SPR running buffer HBSMTD (20-mM Hepes, pH 7.4, 140-mM NaCl, 20-mM MgCl2, 5% (v/v) DMSO, 0.005% (v/v) Tween-20). […] The dissociation constants determined from those experiments were ∼20 μM for ATPγS and ∼2 mM for adenosine. […]
The resulting sensorgrams were analyzed using Biacore T200 Evaluation Software v3.0 according to the following procedure. […]

c1ccc(CNc2nc(NCc3ccccc3)c3ccccc3n2)cc1 [DBeQ, N^2,N^4-dibenzylquinazoline-2,4-diamine]
effect on growth of ΔclpB strain (E. coli MC4100ΔclpB): nearly eliminated; also recorded: effects were eliminated | ClpB-YFP localization with aggregates [1]: ClpB colocalizes with the aggregates even in dnaK103 | suppression of DnaK binding to substrate-mimicking peptide (DnaK): did not detect | Kd (DnaK NBD): 95 ± 16 µM | Bmax (SPR signal at saturation), DnaK NBD (DnaK NBD; SPR): 1.98 ± 0.20
